Results as given in patent US20180170903A1, “PYRIDIN-3-YL ACETIC ACID DERIVATIVES AS INHIBITORS OF HUMAN IMMUNODEFICIENCY VIRUS REPLICATION” (ViiV HEALTHCARE UK (NO.5) LIMITED, priority 2015, published 2018).
Read-outs that look alike come from different tables or passages of the source.

Tested on: NL-RLuc virus (recombinant HIV NL4-3 proviral clone with Renilla Luciferase) in MT-2 cells
Experiment: Inhibition of HIV Replication (NL-RLuc luciferase reporter virus, MT-2 cells)
Assay type: cell-based
Settings: MT2, 120 h
Excerpt: Inhibition of HIV Replication:
A recombinant NL-RLuc proviral clone was constructed in which a section of the nef gene from NL4-3 was replaced with the Renilla Luciferase gene. This virus is fully infectious and can undergo multiple cycles of replication in cell culture. In addition, the luciferous reporter provides a simple and easy method for quantitating the extent of virus growth and consequently, the antiviral activity of test compounds. The plasmid pNLRLuc contains the proviral NL-Rluc DNA cloned into pUC 18 at the PvuII site. The NL-RLuc virus was prepared by transfection of 293T cells with the plasmid pNLRLuc. Transfections were performed using the LipofectAMINE PLUS kit from Invitrogen (Carlsbad, Calif.) according to the manufacturer and the virus generated was titered in MT-2 cells. For susceptibility analyses, the titrated virus was used to infect MT-2 cells in the presence of compound, and after 5 days of incubation, cells were processed and quantitated for virus growth by the amount of expressed luciferase. Assay media was RPMI 1640 supplemented with 10% heat inactivated fetal bovine serum (FBS), 100 units/ml penicillin G/100 units/ml streptomycin, 10 mM HEPES buffer pH 7.55 and 2 mM L-glutamine. The results from at least 2 experiments were used to calculate the EC50 values. Luciferase was quantitated using the Dual Luciferase kit from Promega (Madison, Wis.). Susceptibility of viruses to compounds was determined by incubation in the presence of serial dilutions of the compound. The 50% effective concentration (EC50) was calculated by using the exponential form of the median effect equation where (Fa)=1/[1+(ED50/drug conc.)^m](Johnson V A, Byington R T. Infectivity Assay. In Techniques in HIV Research. ed. Aldovini A, Walker B D. 71-76. New York: Stockton Press. 1990). Activity equal to A refers to a compound having an EC50≤100 nM, while B and C denote compounds having an EC50 between 100 nM and 1 uM (B) or >1 uM (C).

Row | Structure (SMILES) | EC50 (read-out: Activity) | EC50 (read-out: EC50 μM)
1 | COc1ccc(C(=O)N(Cc2ccc(F)cc2)Cc2ccc(-c3c(C)nc(C)c([C@H](OC(C)(C)C)C(=O)O)c3N3CCC(C)(C)CC3)cc2)cc1 [Example 45, (S)-2-(tert-butoxy)-2-(4-(4,4-dimethylpiperidin-1-yl)-5-(4-((N-(4-fluorobenzyl)-4-methoxybenzamido)methyl)phenyl)-2,6-dimethylpyridin-3-yl)acetic acid] | < 0.1 µM | –
2 | Cc1nc(C)c([C@H](OC(C)(C)C)C(=O)O)c(N2CCC(C)(C)CC2)c1-c1ccc(CN(Cc2ccc(F)cc2)C(=O)c2ccc(C(F)(F)F)cc2)cc1 [Example 46, (S)-2-(tert-butoxy)-2-(4-(4,4-dimethylpiperidin-1-yl)-5-(4-((N-(4-fluorobenzyl)-4-(trifluoromethyl)benzamido)methyl)phenyl)-2,6-dimethylpyridin-3-yl)acetic acid] | < 0.1 µM | 0.016 µM
3 | Cc1nc(C)c([C@H](OC(C)(C)C)C(=O)O)c(N2CCC(C)(C)CC2)c1-c1ccc(COc2cccc(C(F)(F)F)c2)cc1 [Example 48, (S)-2-(tert-Butoxy)-2-(4-(4,4-dimethylpiperidin-1-yl)-2,6-dimethyl-5-(4-((3-(trifluoromethyl)phenoxy)methyl)phenyl)pyridin-3-yl)acetic acid] | < 0.1 µM | –
4 | Cc1nc(C)c([C@H](OC(C)(C)C)C(=O)O)c(N2CCC(C)(C)CC2)c1-c1ccc(COC(C)(C)C)cc1 [Example 49, (S)-2-(tert-Butoxy)-2-(5-(4-(tert-butoxymethyl)phenyl)-4-(4,4-dimethylpiperidin-1-yl)-2,6-dimethylpyridin-3-yl)acetic acid] | < 0.1 µM | –
5 | Cc1cc(OCc2ccc(-c3c(C)nc(C)c([C@H](OC(C)(C)C)C(=O)O)c3N3CCC(C)(C)CC3)cc2)ccc1Cl [Example 50, (S)-2-(tert-Butoxy)-2-(5-(4-((4-chloro-3-methylphenoxy)methyl)phenyl)-4-(4,4-dimethylpiperidin-1-yl)-2,6-dimethylpyridin-3-yl)acetic acid] | < 0.1 µM | –
6 | Cc1nc(C)c([C@H](OC(C)(C)C)C(=O)O)c(N2CCC(C)(C)CC2)c1-c1ccc(COCc2ccc(F)cc2)cc1 [Example 51, (S)-2-(tert-Butoxy)-2-(4-(4,4-dimethylpiperidin-1-yl)-5-(4-(((4-fluorobenzyl)oxy)methyl)phenyl)-2,6-dimethylpyridin-3-yl)acetic acid] | > 1 µM | –
7 | Cc1nc(C)c([C@H](OC(C)(C)C)C(=O)O)c(N2CCC(C)(C)CC2)c1-c1ccc(CSCc2ccc(F)cc2)cc1 [Example 52, (S)-2-(tert-Butoxy)-2-(4-(4,4-dimethylpiperidin-1-yl)-5-(4-(((4-fluorobenzyl)thio)methyl)phenyl)-2,6-dimethylpyridin-3-yl)acetic acid] | < 0.1 µM | –
8 | Cc1nc(C)c([C@H](OC(C)(C)C)C(=O)O)c(N2CCC(C)(C)CC2)c1-c1ccc(CN2CCc3ccccc3C2)cc1 [Example 53, (S)-2-(tert-Butoxy)-2-(5-(4-((3,4-dihydroisoquinolin-2(1H)-yl)methyl)phenyl)-4-(4,4-dimethylpiperidin-1-yl)-2,6-dimethylpyridin-3-yl)acetic acid] | < 0.1 µM | 0.076 µM
